Key:
SK3 channels = target: T1, SK3 channels (Homo sapiens, UniProt Q9UGI6); assay: Whole-cell patch-clamp of SK3 currents in HEK293T cells expressing SK3 channels; type: cell-based; details: 10 μM; for time after application at which the maximum of the activation of SK3 current was reached / time after addition at which the effect on SK3 current was reached: currents at 0 mV
T1 construct: expressed in transfected cells
Procedure: HEK293T were obtained from American Type Culture Collection (ATCC) and cultured in Dulbecco's Modified Eagle's Medium, supplemented with 10% (v:v) fetal bovine serum (Lonza, France), 1 mM pyruvate sodium (Sigma-Aldrich, France), and 1% non-essential amino acid (Sigma-Aldrich, France). Cells were grown in a humidified atmosphere at 37° C. and with 95% air and 5% CO2. HEK293T cells were transduced as previously described to obtain stable expression of homotetramer SK3 channels.
Experiments were performed in the whole-cell configuration of the patch-clamp technique. The patch pipettes were filled with solution contained 145 mM KCl, 1 mM MgCl2, 1 mM Mg-ATP, 0.7 mM CaCl2), 1 mM EGTA and 10 mM HEPES (PCa 6). pH was adjusted to 7.2 with KOH. The bath solution contained 140 mM NaCl, 4 mM KCl, 2 mM CaCl2), 1 mM MgCl2, 10 mM HEPES, 0.33 mM NaH2PO4, and 11.5 mM D-glucose. pH was adjusted to 7.4 with NaOH. Patch-clamp experiments and data analyses were conducted as previously described (Girault, A. et al. Current Cancer Drug Target, 2011, 11, 1111-1125). […] The amplitude of the apamin-sensitive current was obtained by subtraction of the amplitude of the current before and after application of 100 nmol/L apamin (a specific SKCa blocker).
The capacity of the compounds 001-006 (Table 2, FIGS. 1 and 2) to modulate the activity of SK3 currents was measured using the whole cell configuration of the patch-clamp technique. For these acute tests, a concentration of 10 μM for each of the compounds was used.

[1] = test system: Thoracic aortic segment (smooth muscle cells); assay: Relaxation of phenylephrine pre-contracted, endothelium-removed thoracic aortic rings; design: species or system guinea pig; details: 10 μM added 2 times, pre-contracted with 10 μM phenylephrine, 5 minutes after additions
Description: Thoracic aortic segments were isolated from a guinea pig as already indicated by Vandier et al, (Adv Physiol Educ. 2002 December; 26(1-4):195-203). Briefly, thoracic aortic segments were isolated, cleaned of adventitia, and cut into rings. The endothelium was removed and aortic rings, were mounted on stainless steel hooks and suspended in a 30-ml jacketed tissue bath with physiological salt solution (in mm): 120 NaCl, 5.4 KCl, 1 MgCl2, 0.6 NaH2PO4, 25 NaHCO3, 5.6 glucose, 5 Na-pyruvate, and 2 CaCl2, bubbled with 95% 02-5% CO2 maintained at 37° C. and aerated with 95% 02-5% CO2. Solutions to be tested were directly added in the jacketed tissue bath generated allowed one to get the desired concentration around the aortic rings. Isometric force generation was recorded with Grass transducers (FT03; Quincy, MA) connected to an amplifier (gain 500) and analogic to digital converter (1 Hz) connected to a computer.
Thoracic aortic segment was pre-contracted using 10 μM phenylephrine. After the steady state was reached 10 μM of compound 002 was added, two successive times, directly in the bath solution containing a physiological salt solution, maintained at 37° C. and aerated with 95% 02-5% CO2

Substance	effect on SK3 channel in words (SK3 channels)	time after application at which the maximum of the activation of SK3 current was reached (SK3 channels) [min]	time after addition at which the effect on SK3 current was reached (SK3 channels) [s]	relaxation effect on pre-contracted thoracic aortic segment [1]	SK3 current (change after application of compound) (SK3 channels; acute, HEK293T expressing SK3, currents analyzed at 0 mV, pCa 6, mean ± SEM)
Lac(OH)7-O-2-methoxy-4-S-heneicosane [compound 003]	kept its activation capacity	5			
Lac(OH)7-O-2-ethoxy-4-S-heneicosane [compound 006]			30		
Lac(OH)7-O-2-methoxy-3-S-heneicosane [compound 002]	strong activator of SK3 channel	5	30	dose-dependent relaxation	
Lac(OH)7-O-2-methoxy-3-S-hexadecane [compound 001]	abolished the activating effect				−9.7% ± 5.2

Reference: patent publication US12729218B2, “Glycolipids and use thereof as SK3 ion channel modulators” (priority 2020, dated 2026)
